According to patent US11993590B2, “Pyranone compounds useful to modulate OMA1 protease” (712 North Inc., priority 2016, dated 2024):
“And” between values parts separate entries of the source, which are not always exact repeats. Equal entries are not always repeated. “Also recorded” adds a separate entry of the source. Where two headings read alike, the source gives them in different places.

What was measured:
[1] = system: OMA1; test: OMA1 agonist test: CCCP threshold of OMA1 activation/OPA1 cleavage in HEK293T cells; type: cell-based, human
[2] = system: OMA1; test: OMA1 antagonist test: CCCP-induced OPA1 cleavage in HEK293T cells, OPA1 Western blot; type: cell-based, human; conditions: for proteolytic cleavage of large OPA1 isoforms upon CCCP: 2 hours before 10 μM CCCP for 30 min
Protocol: HEK293T cells were cultured and maintained in Dulbecco's Modified Eagle's Medium supplemented with 10% fetal bovine serum (FBS) and 2 mM […] in a 95% air-5% CO2 humidified atmosphere at 37° C. To test potential OMA1 antagonists, cells were seeded in 24-well plates and incubated over night to achieve around 90% confluency. For experiments the culture medium was replaced with Minimal Essential Medium and cells were pre-incubated with variable concentrations of the different test-compounds for 2 hours in a 95% air-5% CO2 humidified atmosphere at 37° C. After 2 hours, OMA1 protease was activated through the addition of carbonyl cyanide m-chlorophenyl hydrazone (CCCP; 10 μM final concentration) for 30 min in the presence of different concentrations of compounds to be tested. After 30 minutes, cells were immediately placed on ice, the medium removed, and cells harvested through addition of 100 μl RIPA buffer supplemented with protease inhibitor cocktail. Samples were separated on 8% tris-glycine gels and transferred onto nitro-cellulose membranes by Wester blotting. Membranes were immunolabeled with anti-OPA1 Antibodies (1:1,000) and with goat-anti-mouse Alkaline Phosphatase conjugated secondary antibodies (1:5,000). OPA1 protein was visualized with NBT/BCIP between 5 and 15 minutes before the reaction was stopped with an excess of distilled water.
CCCP is a potent mitochondrial oxidative phosphorylation uncoupler that activates OMA1 and creates conditions that allow OPA1 cleavage to occur.

[3] = system: OMA1; test: OPA1-Western blot of Hek293T cells incubated with tipranavir, OMA1 activated with CCCP or sorafenib; type: cell-based, human
Protocol: FIG. 28. […] OMA1 was activated with 3 μM CCCP for 30 minutes.
FIG. 29. Tipranavir can activate OMA1 at concentrations above 20 μM. […] OMA1 was then activated with 4 μM CCCP for 30 minutes in the indicated samples.
FIG. 30. […] OMA1 was then activated with either 3 μM CCCP or 30 μM sorafenib (SFB) for 30 minutes in the indicated samples.
Experimentally, OMA1 can be activated in cellular assays by the mitochondrial uncoupler [(3-chlorophenyl)hydrazono]propanedinitrile (CCCP).
Example 9. Tipranavir can activate OMA1 at concentrations above 20 μM. To further determine tipranavir's effect on OPA1, I incubated Hek293T cells for an hour with low doses of 0 μM, 20 μM and 40 μM tipranavir (FIG. 29).
Example 10. 100 μM tipranavir can inhibit OPA1 cleavage upon CCCP-treatment and upon sorafenib treatment. […] To investigate whether 100 μM tipranavir can inhibit CCCP-induced OPA1-cleavage or OPA1-cleavage induced by other agents as well, I incubated Hek293T cells for an hour with low doses of 0 μM, 50 μM or 100 μM tipranavir before activating OMA1 with either 3 μM CCCP or 30 μM sorafenib (see FIG. 30).

[4] = system: OMA1; test: OMA1 gene expression microarray in RS4.11 MLL leukemia cells; type: cell-based, human; conditions: RS4.11 cells, 10 μM SB216763, 20 hours
Protocol: Human MLL leukemia RS4.11 cells were cultured without or with 10 μM SB216763 for 20 hours (Wang et al. 2010). […] SB216763 is a kinase inhibitor and the finding that SB216763 can increase OMA1 levels was unexpected and is non-obvious to a person skilled in the arts. In context of the present invention SB216763 thus represents an agonist of OMA1 and/or an oligomeric complex comprising OMA1 as defined above. Accordingly, SB216763 represents a medical intervention in particular for the treatment, prevention and/or amelioration of a disorder or disease correlated with mitochondrial stress or dysfunction, a mitochondrial disorder or disease, or a disorder or disease characterized by OPA1 alterations.
Referring to FIG. 23, the GSK-3 inhibitor SB216763 (CAS #280744-09-4) represents an agonist of OMA1. […] RS4.11 cells were cultured for 20 hours without or with 10 μM SB216763, after which mRNA was isolated and analyzed by gene expression microarrays. Controls expressed OMA1 at 8.10 (±0.01 S.D.) and SB216763 treated cells expressed OMA1 at 8.7 (±0.18 S.D.).

[5] = system: OMA1; conditions: RS4.11 cells, 10 μM SB216763, 20 hours; cited from earlier work
[6] = system: OPA1; conditions: cells cultured with the compound; cited from earlier work
[7] = system: OMA1; test: OMA1 gene expression microarray in KMH2 cells; type: cell-based, human; conditions: 20 mM glucosamine, 24 hours
Protocol: Human malignant lymphocytes (KMH2 cells) were cultured without or with 20 mM glucosamine (Carvalho et al. 2014). After 24 hours mRNA was isolated and analyzed by gene expression microarrays. Controls expressed OMA1 at 7.31 (±0.08 S.D.) and glucosamine treated cells expressed OMA1 at 6.69 (±0.06 S.D.). Glucosamine is a dietary supplement and its effects on mitochondria are known to a person skilled in the arts (Carvalho et al. 2014; Bond and Hanover 2015; Tan et al. 2017). […] In context of the present invention glucosamine thus represents an antagonist of OMA1 and/or an oligomeric complex comprising OMA1 as defined above. Accordingly, glucosamine represents a medical intervention in particular for the treatment, prevention and/or amelioration of a disorder or disease correlated with mitochondrial stress or dysfunction, a mitochondrial disorder or disease, or a disorder or disease characterized by OPA1 alterations.
Referring to FIG. 21, the dietary supplement glucosamine (CAS #3416-24-8) represents an antagonist of OMA1. […] KMH2 cells were cultured for 24 hours without or with 20 mM glucosamine, after which mRNA was isolated and analyzed by gene expression microarrays. Controls expressed OMA1 at 7.31 (±0.08 S.D.) and glucosamine treated cells expressed OMA1 at 6.69 (±0.06 S.D.).

[8] = system: OMA1; conditions: KMH2 cells, 20 mM glucosamine, 24 hours; cited from earlier work
[9] = system: OMA1; conditions: 1% Isoflurane, 90 minutes twice daily, cited from earlier work
[10] = system: OMA1; test: OMA1 gene expression micro-arrays in rat brain; type: in vivo; conditions: 10 exposures
Protocol: Rats were exposed to 1% Isoflurane for 90 minutes twice daily for a total of 5 or 10 exposures, after which animals were sacrificed and brain samples analyzed by gene expression micro-arrays (Pan et al. 2006).

O=S(=O)(CC1CS1)c1ccc(Oc2ccccc2)cc1 (stereo not shown) [SB-3CT]
OPA1 cleavage without CCCP ([1]; 100 μM SB-3CT, 0 μM CCCP): did not show OPA1 alterations; also recorded: did not induce OPA1 cleavage without CCCP | OPA1 cleavage / OMA1 activation at low CCCP ([1]; 100 μM SB-3CT, 3 μM and 5 μM CCCP for 20 minutes): caused OPA1 cleavage to occur already at 3 μM and 5 μM CCCP; also recorded: OMA1 was already activated at lower concentrations of 3 μM and 5 μM CCCP

CC(C)ON(CC(=O)NO)S(=O)(=O)c1ccc(-c2ccccc2)cc1 [ARP100]
proteolytic cleavage of large OPA1 isoforms upon CCCP ([2]; 70 μM): all OPA1 isoforms including the large OPA1-L1 and OPA1-L2 isoforms were readily detectable; also recorded: The large OPA1-L1 and OPA1-L2 isoforms were still readily detectable

N#CC(C#N)=NNc1cccc(Cl)c1 [CCCP, carbonyl cyanide m-chlorophenyl hydrazone]
L-OPA1 hydrolysis by CCCP alone ([3]; 3 μM CCCP, 30 minutes): all L-OPA1 isoforms are hydrolyzed upon CCCP treatment | OMA1 activation / OPA1 cleavage by CCCP alone ([2]; 10 μM CCCP, 30 minutes): resulted in cleavage of both large OPA1-L1 and OPA1-L2 isoforms; also recorded: could activate OMA1, which resulted in the cleavage of the OPA1-L1 and OPA1-L2 isoforms | OPA1 processing by CCCP alone ([1]; 0 μM, 3 μM and 5 μM CCCP, untreated (vehicle-only) cells): had no effect on OPA1 processing in untreated cells | OPA1 cleavage / OMA1 activation by CCCP alone ([1]; 7 μM CCCP, untreated (vehicle-only) cells): OPA1 was cleaved only at the highest concentration of 7 μM CCCP; also recorded: OMA1 was activated at the highest concentration of 7 μM CCCP

Cn1cc(C2=C(c3ccc(Cl)cc3Cl)C(=O)NC2=O)c2ccccc21 [SB216763]
increase of OMA1 gene expression levels [4]: 7.6% | OMA1 expression level [5]: 8.7 (±0.18 S.D.)

c1cnc2c(c1)ccc1cccnc12 [phenanthroline]
proteolytic cleavage of large OPA1 isoforms upon CCCP ([2]; 500 μM): The large OPA1-L1 and OPA1-L2 isoforms were still readily detectable; also recorded: inhibited proteolytic cleavage of OPA1 by OMA1 | OPA1 levels and OPA1L/OPA1S isoforms [6]: an increase in the OPA1L isoform

N[C@H]1C(O)O[C@H](CO)[C@@H](O)[C@@H]1O (stereo partly shown) [glucosamine]
decrease of OMA1 gene expression levels [7]: 8.5% | OMA1 expression level [8]: 6.69 (±0.06 S.D.)

CNC(=O)c1cc(Oc2ccc(NC(=O)Nc3ccc(Cl)c(C(F)(F)F)c3)cc2)ccn1 [sorafenib]
OMA1 activation / OPA1 cleavage by sorafenib alone ([3]; 30 μM sorafenib, 30 minutes): activate OMA1 and lead to OPA1 cleavage similar to CCCP

O=C(O)CNC(=O)C(CS)Cc1ccccc1 (stereo not shown) [Thiorphan]
proteolytic cleavage of large OPA1 isoforms upon CCCP ([2]; 100 μM): all OPA1 isoforms including the two large OPA1-L1 and OPA1-L2 isoforms were readily detectable; also recorded: The large OPA1-L1 and OPA1-L2 isoforms were still readily detectable

CCC[C@@]1(CCc2ccccc2)CC(O)=C([C@H](CC)c2cccc(NS(=O)(=O)c3ccc(C(F)(F)F)cn3)c2)C(=O)O1 [tipranavir]
concentration at which tipranavir can activate OMA1 ([3]; Hek293T cells, 1 hour): above 20 μM

FC(F)OC(Cl)C(F)(F)F (stereo not shown) [Isoflurane]
OMA1 expression level in rat brain ([9]; 5 exposures): 19.1 (±3.4 S.D.) | OMA1 expression level in rat brain ([9]; 10 exposures): 29.3 (±6.3 S.D.) | increase of OMA1 gene expression in rat brain [10]: 180% and 280%
